The test system of one test is Dictyostelium cells. In words: Myosin-1 localization in LY294002-treated (PI(3,4,5)P3-depleted) cells during endocytosis, confocal imaging. The test is classed as cell-based, Dictyostelium discoideum. Particulars: 20 µM, starving cells. The method, then:
Microtubule depolymerization rates were quantified by measuring individual microtubule length reduction over time using Andor Solis software. Cellular localization of fluorescently tagged myosins and time-lapse imaging were performed on an inverted Leica TCS SP2 AOBS confocal microscope and a Leica DMi8 M system equipped with a 63×/1.4 NA oil immersion objective. Bright-field fluorescence microscopy employed an Olympus IX81 inverted microscope with a 60×/1.49 NA oil immersion lens (ApoN, Olympus). For imaging, cells were seeded on glass-bottom dishes (Ibidi), washed twice with MES buffer (20 mM MES, pH 6.8, 0.2 mM CaCl₂, 2 mM MgCl₂), and maintained in this buffer during acquisition. Phagocytic uptake assays were performed following a 2-hour starvation, after which heat-killed yeast particles were added and time-lapse images recorded. […] Image processing was performed using Leica Confocal Software, and quantitative analysis was conducted with ImageJ (NIH, Bethesda, MD, USA). Fluorescence intensity profiles were obtained by drawing lines along the regions of the cups, as illustrated in Fig. 5. Fluorescence data were normalized to the maximum intensity and interpolated using the interpolation algorithm in Origin to account for variations in cup length. Frames showing association of myosin-1C or myosin-1D with the cups were quantified. […]

The target of the next test is T1, Myosin-1C-tail (Dictyostelium discoideum, UniProt P42522).
T1 construct: gene myoC; GST and/or YFP tags kept; E. coli Rosetta pLysS
T1 sequence (P42522 699-1182 limits assumed): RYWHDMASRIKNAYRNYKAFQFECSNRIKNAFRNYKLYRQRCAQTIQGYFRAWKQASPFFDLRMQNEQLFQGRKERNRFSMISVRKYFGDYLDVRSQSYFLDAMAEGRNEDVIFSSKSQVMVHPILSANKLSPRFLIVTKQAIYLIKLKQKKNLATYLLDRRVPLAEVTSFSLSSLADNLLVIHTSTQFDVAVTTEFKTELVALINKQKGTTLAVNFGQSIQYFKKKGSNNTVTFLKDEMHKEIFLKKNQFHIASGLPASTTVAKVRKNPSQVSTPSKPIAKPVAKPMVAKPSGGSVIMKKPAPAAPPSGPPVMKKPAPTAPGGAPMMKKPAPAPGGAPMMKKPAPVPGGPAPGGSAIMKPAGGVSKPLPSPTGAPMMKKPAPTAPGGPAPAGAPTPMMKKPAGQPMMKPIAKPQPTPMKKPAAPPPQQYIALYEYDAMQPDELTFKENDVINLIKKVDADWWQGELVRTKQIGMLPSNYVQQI
Description: liposome co-sedimentation, YFP fluorescence of supernatant. The test is classed as binding. The note with it: PolyPIPosomes (5% PIP, 95% PE + PC), accessible lipid; 10 mM Tris pH 7.5, 100 mM NaCl, 1 mM EGTA, room temperature. From the text:
liposome co-sedimentation, YFP fluorescence of supernatant on Myosin-1C-tail

In the next test the target is T2, Myosin-1D-tail (Dictyostelium discoideum, UniProt P34109).
T2 construct: gene myoD; tail fragment (TH1, SH3, TH2), residues 717-1113; N-terminal GST and/or C-terminal YFP tags kept; E. coli Rosetta pLysS
T2 sequence (P34109 717-1109): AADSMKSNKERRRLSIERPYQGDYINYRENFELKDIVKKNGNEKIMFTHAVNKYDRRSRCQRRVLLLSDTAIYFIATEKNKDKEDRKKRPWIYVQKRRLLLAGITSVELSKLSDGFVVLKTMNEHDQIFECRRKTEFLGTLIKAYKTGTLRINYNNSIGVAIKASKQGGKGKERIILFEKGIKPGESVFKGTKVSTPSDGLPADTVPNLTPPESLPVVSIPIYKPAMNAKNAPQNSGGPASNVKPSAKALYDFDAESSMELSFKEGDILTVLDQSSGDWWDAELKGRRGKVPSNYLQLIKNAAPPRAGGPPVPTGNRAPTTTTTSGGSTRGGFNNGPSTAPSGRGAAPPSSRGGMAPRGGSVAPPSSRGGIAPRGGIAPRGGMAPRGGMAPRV
Described as above. The test is classed as binding. Particulars: PolyPIPosomes (5% PIP, 95% PE + PC), accessible lipid; 10 mM Tris pH 7.5, 100 mM NaCl, 1 mM EGTA, room temperature. From the text: liposome co-sedimentation, YFP fluorescence of supernatant on Myosin-1D-tail

The next test addresses T3, Myosin-1B-tail (Dictyostelium discoideum, UniProt P34092).
T3 construct: gene myoB; tail fragment (TH1, TH2, SH3), residues 717-1111; N-terminal GST and/or C-terminal YFP tags kept; E. coli Rosetta pLysS
T3 sequence (P34092 717-1111): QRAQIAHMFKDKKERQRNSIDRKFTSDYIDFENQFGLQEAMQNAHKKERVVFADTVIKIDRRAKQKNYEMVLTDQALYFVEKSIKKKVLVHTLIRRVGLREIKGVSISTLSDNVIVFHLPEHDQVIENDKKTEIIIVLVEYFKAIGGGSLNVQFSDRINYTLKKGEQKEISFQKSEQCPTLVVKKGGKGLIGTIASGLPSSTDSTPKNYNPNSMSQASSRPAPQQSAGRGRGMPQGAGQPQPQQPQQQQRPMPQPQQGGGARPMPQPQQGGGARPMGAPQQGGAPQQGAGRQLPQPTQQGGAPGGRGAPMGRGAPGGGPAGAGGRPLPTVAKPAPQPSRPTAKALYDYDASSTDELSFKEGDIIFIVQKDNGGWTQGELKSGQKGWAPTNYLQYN
Described as above. The test is classed as binding. Particulars: PolyPIPosomes (5% PIP, 95% PE + PC), accessible lipid; 10 mM Tris pH 7.5, 100 mM NaCl, 1 mM EGTA, room temperature. From the text: liposome co-sedimentation, YFP fluorescence of supernatant on Myosin-1B-tail

`O=c1cc(N2CCOCC2)oc2c(-c3ccccc3)cccc12` [LY294002]: in the test on Dictyostelium cells, the “cortical actin dynamics and association of actin with the early endosome” value is on record as “did not disrupt”; the “localization of myosin-1C and myosin-1D with endocytic cups and endosomal membranes” value is listed as “almost fully abolished”.
On to PI(3)P, for which the results for the equilibrium dissociation constant (Kd) on Myosin-1C-tail and on Myosin-1D-tail were 4000 ± 300 nM and 1700 ± 300 nM, respectively.
As for PI(3,4)P2, the Kd at Myosin-1B-tail stood at 2200 ± 400 nM.
Consider PI(3,4,5)P3, for which the values for the Kd at Myosin-1C-tail and on Myosin-1D-tail were 2500 ± 300 nM and 300 ± 40 nM, respectively.
For the molecule PI(3,5)P2, the results for the Kd at Myosin-1C-tail and on Myosin-1D-tail were 600 ± 100 nM and 800 ± 100 nM, respectively.
For the molecule PI(4)P, the Kd on Myosin-1C-tail stood at 400 ± 100 nM; at Myosin-1D-tail, 1200 ± 200 nM.
For PI(4,5)P2, the Kd at Myosin-1D-tail came out at 700 ± 100 nM.
For the molecule PI(5)P, the dissociation constant Kd was 500 ± 100 nM at Myosin-1C-tail and 7700 ± 600 nM on Myosin-1B-tail.

A word on the Kd: it is the constant that tells how readily two partners part at equilibrium.

The values above are taken from article PMC12676778, “Long-tailed class I myosins rely on tail-mediated phosphoinositide recognition for specific membrane recruitment” (Cell Communication and Signaling : CCS, 2025).
